# How the values were obtained:
# [1] = test system: Streptococcus pneumoniae; experiment: microbe, parasite or virus in culture
# [2] = test system: Staphylococcus aureus; experiment: Antibacterial activity against methicillin-susceptible Staphylococcus aureus Smith in mouse dosed twice iv 1 hr and 4 hrs after infection; type: functional
# [3] = test system: Staphylococcus aureus; experiment: Antibacterial activity against methicillin-resistant Staphylococcus aureus KT0116 in mouse dosed twice iv 1 hr and 4 hrs after infection; type: functional
# [4] = test system: Moraxella catarrhalis; experiment: Antibacterial activity against Moraxella catarrhalis K1209 by broth microdilution method; type: functional
# [5] = test system: Enterococcus faecium; experiment: Antibacterial activity against vancomycin-resistant Enterococcus faecium KU1778 clinical isolate by broth microdilution method; type: functional
# [6] = test system: Streptococcus pyogenes; experiment: Antibacterial activity against Streptococcus pyogenes ATCC 12344 by broth microdilution method; type: functional
# [7] = test system: Staphylococcus aureus; experiment: microbe, parasite or virus in culture; conditions: Smith
# [8] = test system: Staphylococcus aureus; experiment: microbe, parasite or virus in culture; conditions: KMP9
# [9] = test system: Staphylococcus aureus; experiment: Antibacterial activity against methicillin-susceptible Staphylococcus aureus Smith in po dosed mouse twice daily; type: functional
# [10] = test system: Staphylococcus aureus; experiment: microbe, parasite or virus in culture
# [11] = test system: Enterococcus faecalis; experiment: microbe, parasite or virus in culture; conditions: ATCC 29212
# [12] = test system: Staphylococcus aureus; experiment: microbe, parasite or virus in culture; remark: listed apart in the source
# [13] = test system: Haemophilus influenzae; experiment: Antibacterial activity against Haemophilus influenzae TH13 by broth microdilution method; type: functional
# [14] = test system: Streptococcus pneumoniae; experiment: microbe, parasite or virus in culture; conditions: ATCC 49619
# [15] = test system: Staphylococcus epidermidis; experiment: Antibacterial activity against Staphylococcus epidermidis ATCC 12228 by broth microdilution method; type: functional
# [16] = test system: Streptococcus pneumoniae; experiment: Antibacterial activity against penicillin-susceptible Streptococcus pneumoniae ATCC 49619 in mouse dosed twice iv 1 hr and 4 hrs after infection; type: functional; conditions: ATCC 49619, iv
# [17] = test system: Streptococcus pneumoniae; experiment: Antibacterial activity against penicillin-resistant Streptococcus pneumoniae KT2524 in mouse dosed twice iv 1 hr and 4 hrs after infection; type: functional
# [18] = test system: Enterococcus faecium; experiment: microbe, parasite or virus in culture; conditions: ATCC 19434
# [19] = test system: Peptostreptococcus anaerobius; experiment: Antibacterial activity against Peptostreptococcus anaerobius GAI 5506 by broth microdilution method; type: functional
# [20] = test system: Peptoniphilus asaccharolyticus; experiment: Antibacterial activity against Peptostreptococcus asaccharolyticus GAI 5534 by broth microdilution method; type: functional
# [21] = test system: Mycoplasmoides pneumoniae; experiment: Antibacterial activity against Mycoplasma pneumoniae Mac by broth microdilution method; type: functional
# [22] = test system: Clostridium perfringens; experiment: Antibacterial activity against Clostridium perfringens GAI 5526 by broth microdilution method; type: functional
# [23] = test system: Propionibacterium granulosum; experiment: Antibacterial activity against Propionibacterium granulosum GAI 7414 by broth microdilution method; type: functional; conditions: Cutibacterium granulosum
# [24] = test system: Atopobium parvulum; experiment: Antibacterial activity against Atopobium parvulum GAI 5542 by broth microdilution method; type: functional; conditions: Lancefieldella parvula
# [25] = test system: Finegoldia magna; experiment: Antibacterial activity against Peptostreptococcus magnus GAI 5528 by broth microdilution method; type: functional
# [26] = test system: Streptococcus intermedius; experiment: Antibacterial activity against Streptococcus intermedius GAI 7416 by broth microdilution method; type: functional
# [27] = test system: Staphylococcus saccharolyticus; experiment: Antibacterial activity against Staphylococcus saccharolyticus GAI 5520 by broth microdilution method; type: functional
# [28] = test system: Staphylococcus aureus; experiment: Antibacterial activity against methicillin-susceptible Staphylococcus aureus Smith in mouse dosed iv 1 hr after infection; type: functional
# [29] = test system: Cutibacterium acnes; experiment: Antibacterial activity against Propionibacterium acnes GAI 5568 by broth microdilution method; type: functional
# [30] = test system: Streptococcus pneumoniae; experiment: Antibacterial activity against penicillin-susceptible Streptococcus pneumoniae ATCC 49619 in mouse dosed iv 1 hr after infection; type: functional; conditions: ATCC 49619, iv
# [31] = test system: Mycoplasmoides pneumoniae; experiment: Antibacterial activity against Mycoplasma pneumoniae FH Liu by broth microdilution method; type: functional
# [32] = test system: Streptococcus pneumoniae; experiment: Antibacterial activity against penicillin-resistant Streptococcus pneumoniae KT2524 in mouse dosed iv 1 hr after infection; type: functional
# [33] = test system: Staphylococcus aureus; experiment: Antibacterial activity against methicillin-resistant Staphylococcus aureus KT0116 in mouse dosed iv 1 hr after infection; type: functional
# [34] = test system: Streptococcus pneumoniae; experiment: Antibacterial activity against penicillin-susceptible Streptococcus pneumoniae ATCC 6303 in mouse pulmonary infection model assessed as survival at 6.25 mg/kg, ip twice daily for 3 days; type: functional; conditions: route intraperitoneal
# [35] = Solubility in water; type: physicochemical
SMILES,MIC [1] [µg/mL],MIC [4] [µg/mL],MIC [5] [µg/mL],MIC [6] [µg/mL],MIC [7] [µg/mL],MIC [8] [µg/mL],MIC [10] [µg/mL],MIC [12] [µg/mL],MIC [13] [µg/mL],MIC [14] [µg/mL],MIC [15] [µg/mL],MIC [18] [µg/mL],MIC [19] [µg/mL],MIC [20] [µg/mL],MIC [22] [µg/mL],MIC [23] [µg/mL],MIC [24] [µg/mL],MIC [25] [µg/mL],MIC [26] [µg/mL],MIC [27] [µg/mL],further results
CC[C@]1(C)C[C@@H](OC(=O)CSc2nnc(N)[nH]2)[C@]2(C)[C@H](C)CC[C@]3(CCC(=O)[C@H]32)[C@@H](C)[C@@H]1O [AZAMULIN],0.5,0.032,0.25,0.25,0.5,2,0.25,1,0.5,0.5,0.25,0.5,–,–,–,–,–,–,–,–,ED50 [2]: 6.88 mg/kg; ED50 [3]: 5.2 mg/kg; ED50 [9]: 13.3 mg/kg; MIC [11]: 128 µg/mL; ED50 [16]: 12.9 mg/kg; ED50 [17]: 17.7 mg/kg
CN(C)c1ccc(O)c2c1C[C@H]1C[C@H]3[C@H](N(C)C)C(O)=C(C(N)=O)C(=O)[C@@]3(O)C(O)=C1C2=O [MINOCYCLINE],8,0.25,0.063,0.063,0.063,4,0.063,16,0.5,0.032,0.125,0.063,0.032,16,0.063,0.25,0.25,0.125,0.25,0.125,MIC [21]: 0.25 µg/mL; ED50 [28]: 0.515 mg/kg; MIC [29]: 0.125 µg/mL; ED50 [30]: 0.968 mg/kg; MIC [31]: 0.25 µg/mL; ED50 [32]: 50 mg/kg; ED50 [33]: 50 mg/kg
C=C[C@]1(C)C[C@@H](OC(=O)CSC2CCN(C(=O)CCn3cnc4c(N5CCNCC5)nc(N)nc43)CC2)[C@@]2(C)C3C(=O)CC[C@@]3(CC[C@H]2C)[C@@H](C)[C@@H]1O (some centres undefined),0.063,0.032,0.063,0.032,0.25,0.5,0.063,0.5,0.125,0.063,0.063,0.063,0.032,0.032,0.063,0.016,0.25,0.063,0.25,0.06,MIC [21]: 0.008 µg/mL; Activity [34]: 50%; ED50 [2]: 1.51 mg/kg; ED50 [3]: 0.91 mg/kg; solubility [35]: 50 mg/mL; ED50 [28]: 1.86 mg/kg; MIC [29]: 0.008 µg/mL; ED50 [9]: > 50 mg/kg; ED50 [30]: 1.54 mg/kg; MIC [31]: 0.008 µg/mL; ED50 [32]: 1.55 mg/kg; MIC [11]: 64 µg/mL; ED50 [33]: 2.15 mg/kg; ED50 [16]: 1.34 mg/kg; ED50 [17]: 1.88 mg/kg
CC1(C)S[C@@H]2[C@H](NC(=O)[C@H](N)c3ccccc3)C(=O)N2[C@H]1C(=O)O [AMPICILLIN],–,–,–,–,–,–,–,–,–,–,–,–,0.125,0.25,0.063,0.063,0.125,0.25,0.125,0.008,MIC [29]: 0.125 µg/mL

# — ChEMBL document CHEMBL1142399, “Water-soluble pleuromutilin derivative with excellent in vitro and in vivo antibacterial activity against gram-positive pathogens” (J Med Chem, 2008)
